Experimental data reported in patent publication US6537976B1, “Dialysis solutions containing water soluble vitamins and nutrients” (priority 1997, dated 2003).
Read-outs that look alike come from different tables or passages of the source.

Columns and labels:
[1] = cited from earlier work
plasma proteins = conditions: subjects with normal kidney function; effects of uremia not examined; cited from earlier work
[2] = In vitro hemodialysis of uremic plasma using dialysate solutions with and without added vitamins
Method: In the following experiment uremic plasma was dialyzed against dialysate solutions containing different concentrations of vitamins, and the total plasma levels of vitamins after dialysis was measured.
Plasma obtained from a uremic subject undergoing plasmapharesis was pooled and samples were taken for estimation of baseline vitamin levels. The total volume of 2.7 liters was divided into three equal aliquots of 900 ml each. Hemodialysis was performed on each aliquot of plasma using a F-60 polysulfone dialyzer (Fresenius Inc., USA). The plasma flow rate was 350 ml/min and the dialysate flow rate was 500 ml/min.
In the first experiment, vitamins were not added to the dialysate. In the second experiment, vitamins were added to the dialysate at a concentration that was close to the upper limit of normal, to simulate the maintenance of physiologic levels. In the third experiment, vitamins were added to the dialysate at a concentration that was 10 times that in the second experiment, with the aim of achieving supratherapeutic levels.

[3] = cited from earlier work; remark: listed apart in the source
[4] = subjects with normal renal function; cited from earlier work
[5] = cited from earlier work; remark: listed apart in the source
[6] = vitamin in the dialysate 0 μg/L
[7] = vitamin in the dialysate 60 μg/L
[8] = vitamin in the dialysate 600 μg/L
[9] = vitamin in the dialysate 15 μg/L
[10] = vitamin in the dialysate 150 μg/L

## O=C1O[C@H]([C@@H](O)CO)C(O)=C1O [Ascorbic acid (vit C), ascorbic acid]
[1]; 500 mg ascorbic acid/day for 2 weeks, mean ± SE
  Plasma concentration in hemodialysis patients receiving supplementation in high doses: 28 ± 2 mg/L (mean ± SE),
[1]; 500 mg ascorbic acid/day for 2 weeks, range
  Plasma concentration in hemodialysis patients receiving supplementation in high doses, Range: Range: 15-37 mg/L,

## Cc1ncc(C[n+]2csc(CCO)c2C)c(N)n1 [Thiamine, thiamine]
Plasma proteins
  Fraction of the plasma content that is protein bound (binding in words): albumin
[1]; 600-900 mg thiamine per week, predialysis, mean ± SD
  Whole blood thiamine in hemodialysis patients receiving supplementation in high doses: 50 ± 12 µg/L
[2]; [6]
  Plasma concentration of the vitamin after dialysis for 0 min (Baseline): 17 ng/mL
  Plasma concentration of the vitamin after dialysis for 90 min: 3.6 ng/mL
[2]; [7]
  Plasma concentration of the vitamin after dialysis for 0 min (Baseline): 17 ng/mL
  Plasma concentration of the vitamin after dialysis for 90 min: 72 ng/mL
  Ratio of Plasma to dialysate at the end of dialysis (VP/VD): 1.2
[2]; [8]
  Plasma concentration of the vitamin after dialysis for 0 min (Baseline): 17 ng/mL
  Plasma concentration of the vitamin after dialysis for 90 min: >100 ng/mL

## cyanocobalamin [Vitamin B12]
[3]
  solubility in water: soluble in water
Plasma proteins
  Fraction of the plasma content that is protein bound (binding in words): Protein bound
[1]; vitamin B12, Bostom et al., predialysis, mean ± SD
  Plasma concentration in hemodialysis patients receiving supplementation in high doses: 1.3 ± 0.4 ng/mL

## C[N+](C)(C)C[C@H](O)CC(=O)[O-] [L-carnitine]
[4]
  fraction of the administered dose excreted in the urine: 58-65%
[3]
  solubility in water: water soluble
Plasma proteins
  Fraction of the plasma content that is protein bound (binding in words): not bound
[1]; 20 mg/Kg L-carnitine intravenously three times a week following hemodialysis for 6 months, mean ± SE
  Free carnitine plasma concentration in hemodialysis patients receiving supplementation in high doses: Free carnitine 250 ± 11 μmol/L
[5]; 20 mg/kg intravenous after each hemodialysis session for 6 months, control group 18%
  patients showing global improvement in clinical status: 50%
[5]; chronic hemodialysis patients
  clinical effects of carnitine administration: improvement in intradialytic hypotension, muscle cramps, exercise capacity, a sense of well being

## Cc1ncc(CO)c(CO)c1O.Cl [pyridoxine hydrochloride]
[2]; assay specific for esters such as PLP, does not measure pyridoxine
  effect of addition to the dialysate on plasma PLP concentration: did not result in an increase in PLP concentration

## Nc1nc2ncc(CNc3ccc(C(=O)N[C@@H](CCC(=O)O)C(=O)O)cc3)nc2c(=O)[nH]1 [Folic acid, folic acid]
[1]; 15 mg folic acid daily for 8 weeks, predialysis, mean ± SD
  Plasma concentration in hemodialysis patients receiving supplementation in high doses: 927 ± 575 μg/L with 15
[2]; [6]
  Plasma concentration of the vitamin after dialysis for 0 min (Baseline): 5.8 ng/mL
  Plasma concentration of the vitamin after dialysis for 45 min: 1.7 ng/mL
  Plasma concentration of the vitamin after dialysis for 90 min: 3.3 ng/mL
[2]; [9]
  Plasma concentration of the vitamin after dialysis for 0 min (Baseline): 5.8 ng/mL
  Plasma concentration of the vitamin after dialysis for 45 min: 32.2 ng/mL
  Plasma concentration of the vitamin after dialysis for 90 min: 39.8 ng/mL
[2]; [10]
  Plasma concentration of the vitamin after dialysis for 0 min (Baseline): 5.8 ng/mL
  Plasma concentration of the vitamin after dialysis for 45 min: 256.5 ng/mL
  Plasma concentration of the vitamin after dialysis for 90 min: 272.2 ng/mL

## Cc1ncc(COP(=O)(O)O)c(C=O)c1O [Pyridoxal 5′-phosphate (vit B6), pyridoxal 5-phosphate]
Plasma proteins
  Fraction of the plasma content that is protein bound (binding in words): albumin
